Laboratory results reported in article PMC5007443, “TNIK inhibition abrogates colorectal cancer stemness” (Nature Communications, 2016).

Tests used:
[1] = test system: TNIK, AXIN2, c-MYC, LRP6, LRP5 proteins; assay: Immunoblotting of TNIK, AXIN2, c-MYC, LRP6, LRP5 in HCT116 and DLD-1 cells; assay type: cell-based, human; conditions: HCT116 and DLD-1, 48 h
Protocol: Protein samples were fractionated by SDS–PAGE and blotted onto Immobilon-P membranes (Millipore) as described previously. After incubation with the primary antibodies (listed in Supplementary Table 4) at 4 °C overnight, the blots were detected with the relevant horseradish peroxidase-conjugated anti-mouse or anti-rabbit IgG antibody (Cell Signaling Technology) and Western lighting ECL Pro (PerkinElmer). Signals were visualized with the LAS-4010 system (GE Healthcare). Uncropped versions of the blots in Figs 2e and 3f are shown in Supplementary Fig. 15.

HCT116 cells = assay: CSC surface marker flow cytometry in HCT116 cells; assay type: cell-based, human; conditions: HCT116, 1 µM, 96 hours
Protocol: Cells were collected with Accutase, washed with stain buffer (BD Pharmingen), resuspended in 100 μl stain buffer (5 × 10^5 cells per 100 μl), and incubated with fluorophore-conjugated antibodies or their corresponding isotype-matched control antibodies (Supplementary Table 4) at 4 °C for 30 min. The cells were then washed twice and resuspended in 500 μl of stain buffer. 7-Aminoactinomycin D (7AAD; BD Pharmingen) was added to the samples before analysis. Relative fluorescence intensities were measured using a Guava easy Cyte HT flow cytometer following exclusion of dead cells on the basis of 7AAD incorporation. Data analysis was performed using Guava InCyte software (Merck-Millipore). Experiments were performed in triplicate and repeated at least two times.

[2] = test system: TCF/LEF transcriptional activity of spheroid clone #6 Cl. 2; assay: Spheroid TCF/LEF GFP reporter assay; assay type: cell-based; conditions: Homo sapiens, read-out: IC50, reduction of cells expressing Wnt-driven GFP
Excerpt: Lentiviral gene transfer of the reporter gene was used to evaluate the TCF/LEF transcriptional activity of patient-derived spheroids due to their poor transfection efficiency. Spheroids were infected with TCF/LEF reporter lentiviral particles encoding the green fluorescent protein (GFP) gene under the control of the TCF/LEF-responsive promoter (Cignal Lenti TCF/LEF Reporter (GFP) (Qiagen)) or relevant negative control lentiviral particles (Cignal Lenti negative control (GFP) (Qiagen)) at a multiplicity of infection of 10 in the presence of 4 μg ml^−1 SureEntry Transduction Reagent (Qiagen) for 24 h. GFP-positive spheroids were cloned by limiting dilution in the presence of 2 μg ml^−1 puromycin (Sigma-Aldrich; Fig. 6a,b).
GFP-positive cells were detected using the Guava easy Cyte HT flow cytometer (Fig. 6c). Experiments were performed in triplicate and repeated at least two times.

[3] = test system: patient-derived colon cancer spheroid #6 xenograft; assay: Xenograft of patient-derived spheroid #6 in NOD/ShiJic-scid mice; assay type: in vivo, mouse; conditions: NCB-0846 HCl oral 50 or 100 mg kg−1 BID, 6-days-on, 1-day-off
Excerpt: Patient-derived colorectal cancer spheroids were dissociated, resuspended in medium containing 50% Matrigel (Corning), and inoculated subcutaneously (#6; 1 × 10^4 cells per injection, #19; 1 × 10^5 cells per injection) into the flank of female NOD/ShiJic-scid mice (4-week-old females; CLEA Japan). When the tumour volume reached ∼200 mm^3, the mice were randomized according tumour volume (10 mice per group) and treatment was started.
(§1) Tumour volume was estimated based on the formula: (length × width^2)/2. The tumour volume (twice a week) and body weight (every day) of each mouse were recorded. The patient-derived spheroids and xenografts were established after obtaining informed consent from the donors.

PDX COX021 = assay: Patient-derived xenograft COX021 in Nu/Nu nude mice; assay type: in vivo, mouse; conditions: COX021, NCB-0846 HCl oral 45 or 90 mg/kg BID, 5-day on, 2-day off
Protocol: (§2) Patient-derived colorectal cancer xenografts […] were established by Shanghai ChemPartner. Female Nu/Nu nude mice aged 5–6 weeks were implanted subcutaneously with the xenografts and randomized into three treatment groups (10 mice per group) based on the developed tumour volume (∼200 mm^3).
as §1

PDX COX026 = assay: Patient-derived xenograft COX026 in Nu/Nu nude mice; assay type: in vivo, mouse; conditions: COX026, NCB-0846 HCl oral 45 or 90 mg/kg BID, 5-day on, 2-day off
Protocol: as §2, §1

O[C@H]1CC[C@@H](Oc2cccc3cnc(Nc4ccc5nc[nH]c5c4)nc23)CC1 [NCB-0846, cis-4-(2-(3H-benzo[d]imidazol-5-ylamino)quinazolin-8-yloxy)cyclohexanol]
LRP6 and LRP5 protein expression [1]: downregulated | expression of TNIK, AXIN2 and cMYC at the protein level [1]: reduced | proportion of cells showing high expression of CSC surface markers (CD44, CD133, CD166, CD29 and EpCAM) (HCT116 cells): reduced | IC50 [2]: 480 nM | growth of tumours [3]: suppressed | growth of the PDXs (PDX COX021): significantly suppressed | growth of the PDXs (PDX COX026): significantly suppressed
